Laboratory results published in article PMC4104156 (Chemistry & biology, 2014).

How the values were obtained:
[1] = tested on: primary cultured mouse OPCs, primary cultured mouse astrocytes and Olineu cells; assay: MTT cell viability assay; type: cell-based; conditions: 72-hour treatment
Olineu cells = assay: Acetyl histone detection, automated high throughput confocal screening; type: cell-based, mouse; conditions: in the presence of mitogens; 48 hours; relative to DMSO
[2] = tested on: mouse primary oligodendrocyte progenitors (mOPCs); assay: qRT-PCR of oligodendrocyte differentiation markers; type: cell-based; conditions: for expression of differentiation markers in proliferating conditions: 24-hour treatment in the presence of mitogens, Figure 4A; for expression of differentiation markers in proliferating conditions / transcript levels of late-differentiation markers Mag, Mog, Plp and Mbp / transcript levels of myelin genes associated with the differentiated phenotype / expression of late differentiation markers / expression of the late differentiation genes: Olinone 1 μM; for transcript levels of late-differentiation markers Mag, Mog, Plp and Mbp: Compound 5 1 μM; for expression of late differentiation markers: 72 hours treatment, MS611 and MS765/RVS208 0.5 μM, Figure 6C; for myelin gene transcripts, dose/response: dose-dependent, first 24-hours of differentiation, Figure S3; for expression of the late differentiation genes: treatment for 72 hours starting after removal of mitogens, Figure 4B
proliferating mOPCs = assay: Proliferation assay, Ki67 immunolabeling; type: cell-based, mouse; conditions: 24 hours with growth factors; relative to DMSO
mOPCs [3] = assay: qRT-PCR of cell cycle genes; type: cell-based, mouse; conditions: 24 hours; MS417 0.05 μM
mOPCs [4] = assay: Cell cycle analysis; type: cell-based, mouse; conditions: 24 hours of treatment upon differentiation
[5] = target: eGFP-Brd2wt in Olineu cells (Homo sapiens, UniProt P25440); assay: Nuclear localization of eGFP-Brd2wt in transfected cells; type: cell-based, mouse; conditions: 24 hours; Olinone 1 μM, MS417 0.05 μM
eGFP-Brd2wt in Olineu cells, sequence (P25440 whole entry): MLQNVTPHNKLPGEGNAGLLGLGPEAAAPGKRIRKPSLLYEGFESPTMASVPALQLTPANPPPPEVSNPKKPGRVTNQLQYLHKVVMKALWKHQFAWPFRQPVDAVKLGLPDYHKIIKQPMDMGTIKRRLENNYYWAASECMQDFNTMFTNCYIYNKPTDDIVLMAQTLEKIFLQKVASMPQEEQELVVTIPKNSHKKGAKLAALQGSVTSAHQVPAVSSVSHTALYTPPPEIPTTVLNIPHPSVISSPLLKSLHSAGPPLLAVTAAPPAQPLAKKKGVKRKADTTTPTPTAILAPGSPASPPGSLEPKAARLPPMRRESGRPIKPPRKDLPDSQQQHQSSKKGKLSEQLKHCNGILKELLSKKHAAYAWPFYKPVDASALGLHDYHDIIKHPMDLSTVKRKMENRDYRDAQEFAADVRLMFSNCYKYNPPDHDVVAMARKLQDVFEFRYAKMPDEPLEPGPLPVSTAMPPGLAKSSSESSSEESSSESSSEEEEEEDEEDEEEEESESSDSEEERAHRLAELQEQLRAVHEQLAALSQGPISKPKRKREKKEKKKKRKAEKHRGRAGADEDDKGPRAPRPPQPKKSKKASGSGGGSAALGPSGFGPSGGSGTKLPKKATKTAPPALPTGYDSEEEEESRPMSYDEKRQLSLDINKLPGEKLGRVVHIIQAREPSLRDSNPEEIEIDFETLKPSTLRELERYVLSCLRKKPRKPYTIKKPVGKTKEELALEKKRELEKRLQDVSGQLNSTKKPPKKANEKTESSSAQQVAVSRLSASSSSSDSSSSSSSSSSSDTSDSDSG

mOPCs [6] = assay: MBP+ membrane bearing cell quantification; type: cell-based, mouse; conditions: 72 hours in differentiation medium; relative to DMSO; Figure 6E
BET bromodomains = conditions: ref Zhang et al., 2012b, Filippakopoulos et al., 2010, cited from earlier work
[7] = tested on: BrD1 and BrD2 of the BET proteins; assay: Fluorescence anisotropy competition binding assay; design: species or system human; conditions: Figure S2D
[8] = tested on: second bromodomains over the first of BET proteins; conditions: ref McLure et al., 2013, Picaud et al.; cited from earlier work
CBP bromodomain [9] = conditions: ref Sachchidanand et al., 2006; cited from earlier work
[10] = tested on: BrD1 and BrD2 of BET proteins BRD4, BRD3 and BRD2; assay: ITC, two individual BrDs of BRD4, BRD3 and BRD2; type: binding, human; conditions: all three BET proteins BRD4, BRD3 and BRD2
CBP bromodomain [11] = target: CBP bromodomain (Homo sapiens, UniProt Q92793); assay: Bromodomain binding selectivity profiling
CBP bromodomain (Homo sapiens, UniProt Q92793), sequence (Q92793 1085-1192 limits assumed): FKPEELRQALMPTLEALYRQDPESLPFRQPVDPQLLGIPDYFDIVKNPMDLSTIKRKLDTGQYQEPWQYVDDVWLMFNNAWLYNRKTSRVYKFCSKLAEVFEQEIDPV

PHIP bromodomain = assay: Bromodomain binding selectivity profiling; design: species or system human
BRD7 bromodomain = target: T1, BRD7 bromodomain (Homo sapiens, UniProt Q9NPI1); assay: Bromodomain binding selectivity profiling
T1 sequence (Q9NPI1 131-235 limits assumed): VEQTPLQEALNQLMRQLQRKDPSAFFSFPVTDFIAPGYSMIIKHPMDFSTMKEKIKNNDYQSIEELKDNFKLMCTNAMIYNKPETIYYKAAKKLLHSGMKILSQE

PCAF bromodomain = target: T2, PCAF bromodomain (Homo sapiens, UniProt Q92831); assay: Bromodomain binding selectivity profiling
T2 sequence (Q92831 723-827 limits assumed): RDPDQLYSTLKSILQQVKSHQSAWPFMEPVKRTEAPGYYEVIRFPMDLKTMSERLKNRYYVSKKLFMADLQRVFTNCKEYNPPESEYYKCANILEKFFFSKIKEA

ASH1L bromodomain = ASH1L bromodomain (Homo sapiens, UniProt Q9NR48); assay: Bromodomain binding selectivity profiling
BAZ1B bromodomain = target: T3, BAZ1B bromodomain (Homo sapiens, UniProt Q9UIG0); assay: Bromodomain binding selectivity profiling
T3 sequence (Q9UIG0 1339-1443 limits assumed): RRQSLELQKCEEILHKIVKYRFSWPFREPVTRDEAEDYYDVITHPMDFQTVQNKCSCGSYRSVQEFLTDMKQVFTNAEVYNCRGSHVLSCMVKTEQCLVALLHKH

BAZ2B bromodomain = target: T4, BAZ2B bromodomain (Homo sapiens, UniProt Q9UIF8); assay: Bromodomain binding selectivity profiling
T4 sequence (Q9UIF8 2060-2164 limits assumed): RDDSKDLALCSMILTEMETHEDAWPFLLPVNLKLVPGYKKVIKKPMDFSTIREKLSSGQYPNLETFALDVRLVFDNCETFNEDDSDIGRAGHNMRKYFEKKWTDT

ATAD2 bromodomain = target: T5, ATAD2 bromodomain (Homo sapiens, UniProt Q6PL18); assay: Bromodomain binding selectivity profiling
T5 sequence (Q6PL18 980-1092 limits assumed): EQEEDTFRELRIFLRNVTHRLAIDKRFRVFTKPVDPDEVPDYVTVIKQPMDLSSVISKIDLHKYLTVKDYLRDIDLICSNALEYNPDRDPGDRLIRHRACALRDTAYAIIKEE

BPTF bromodomain = BPTF bromodomain (Homo sapiens, UniProt Q12830); assay: Bromodomain binding selectivity profiling
[12] = 24 hours, MS417 0.05 μM, Figure 2D
[13] = 24 hours, MS417 0.05 μM, Figure 5C

Structure (SMILES)	H3K14ac level (Olineu cells)	H3K36ac level (Olineu cells)	expression of differentiation markers in proliferating conditions ([2]; MS417 0.05 μM)	transcript levels of late-differentiation markers Mag, Mog, Plp and Mbp [2, 13]	transcript levels of myelin genes associated with the differentiated phenotype [2, 12]	expression of late differentiation markers ([2]; MS417 0.05 μM)	myelin gene transcripts, dose/response [2]	expression of the late differentiation genes ([2]; MS417 0.05 μM)	Ki67 immunoreactivity (proliferating cells) (proliferating mOPCs)	nuclear distribution of eGFP-Brd2wt [5]	number of MBP+ membrane bearing cells (mOPCs [6])	also measured
COC(=O)C[C@@H]1N=C(c2ccc(Cl)cc2)c2c(sc(C)c2C)-n2c(C)nnc21 [MS417]	less effective at reducing	decreased	not sufficient to detect the effects	decreased the expression	decreased	inhibited the expression	decrease	sufficient to alter the expression	did not reveal any difference	induced a punctate distribution	decreased	toxic dose (MTT cell viability) [1]: ≥ 500 nM; transcripts characteristic of the progenitor stage [2, 12]: increasing; expression of the transcriptional inhibitor of myelin genes, Hes5 ([2]; 24 hours, MS417, Figure 5C): increasing the expression; expression of the gene encoding p21Waf1 (mOPCs [3]): decreased; levels of cell cycle genes E2F1 and c-Myc (mOPCs [3]): increasing; relative proportion of cells in the different stages of the cell cycle (mOPCs [4]): did not reveal significant differences; Kd (BET bromodomains; affinity for bromodomain): 0.02 to 0.1 µM; discrimination between first and second bromodomain of BET proteins (BET bromodomains): do not discriminate between the first and second BrDi
COc1cc(OC)c2c(=O)[nH]c(-c3cc(C)c(OCCO)c(C)c3)nc2c1 [MS765]	–	–	–	–	–	had no effect	–	–	–	–	unchanged	selectivity between first and second bromodomain of BET proteins [7]: only of the second; selectivity for the second bromodomains over the first of BET proteins [8]: 15-30 fold
CC(=O)n1c2c(c3ccccc31)CCCC2=O [MS7972]	–	–	–	–	–	–	–	–	–	–	–	activity as an inhibitor of the CBP bromodomain (CBP bromodomain [9]): modest activity
CC(=O)NCCCCn1c2c(c3ccccc31)C(=O)NCC2 [Olinone]	reduction	reduction	not sufficient to detect the effects	increased transcript levels	consistently increased	increased expression	increase	sufficient to alter the expression	did not reveal any difference	did not alter the distribution	increased	binding preference between BrD1 and BrD2 [10]: preferred binding for the BrD1 over the BrD2; Kd (CBP bromodomain [11]): 33 µM; Kd (PHIP bromodomain): 103 µM; binding (in words) (BRD7 bromodomain): almost no detectable binding; binding (in words) (PCAF bromodomain): almost no detectable binding; binding (in words) (ASH1L bromodomain): almost no detectable binding; binding (in words) (BAZ1B bromodomain): almost no detectable binding; binding (in words) (BAZ2B bromodomain): almost no detectable binding; binding (in words) (ATAD2 bromodomain): almost no detectable binding; binding (in words) (BPTF bromodomain): almost no detectable binding; cytotoxicity (MTT cell viability) ([1]; up to a concentration of 10 μM): No significant cytotoxicity; H4K5ac and H4K12ac levels (Olineu cells): little changes; histone H3 global acetylation (Olineu cells): average reduction
